Values quoted from earlier work as cited in article PMC4387274, “A phase 1 dose escalation study of BI 831266, an inhibitor of Aurora kinase B, in patients with advanced solid tumors” (Investigational New Drugs, 2014).

How the values were obtained:
acute myeloid leukemia = test system: acute myeloid leukemia; set-up: method as in PMID 23605952; conditions: compared with low-dose cytosine arabinoside control arm
[1] = 121 patients with solid malignancies

Row | Compound | Safety in ongoing phase 1 study (solid malignancies; 105 mg in Schedule A) | Objective responses (solid malignancies; [1]) | Patients achieving SD (solid malignancies; [1]) | Objective clinical response rate (acute myeloid leukemia)
1 | CC(C)NC(=O)[C@H]1CCC[C@H]1Nc1nc(Nc2ccc(C(=O)N(C)C3CCN(C)CC3)cc2)ncc1C(F)(F)F [BI 811283] | no significant safety issues | no objective responses | a third of the patients | 
2 | CCN(CCCOc1ccc2c(Nc3cc(CC(=O)Nc4cccc(F)c4)n[nH]3)ncnc2c1)CCOP(=O)(O)O [barasertib] |  |  |  | superior objective clinical response rate
